We go through 5 compounds from patent publication US12702478B2, “Devices, methods, and compositions for thermal acceleration and drug delivery” (Rhode Island Hospital, priority 2015, dated 2026).

For series [1] the following is noted: at 100° C.; cited from earlier work.
The test system of a further series is rat. The settings on record: cited from earlier work.
Series [2] is described as follows: Doxorubicin diffusion from coagulated gel in agarose phantom. Type of series: physicochemical. The note with it: 2.0 mg in 0.5 mL gel. As for the experimental part: Method 1: In a 1% (w/v) agarose gel as phantom, HSA-based #1 gel (0.5 mL) with Doxorubicin HCl (2.0 mg) was placed 1 cm away from a MW antenna at ambient temperature. The ablation was performed at 60 W for 10 minutes (MicroThermX/Varian 915 MHz). Post ablation, the cooled agarose gel was left at ambient temperature for 48 hours for diffusion of the Doxorubicin.
The solution contained 1 (w/v) % agarose phantom. The ablation conditions: 915 MHz, 60 W for 10 minutes.

A short description of series [3]: In vitro elution of Resiquimod from coagulated gel (HPLC). The class given is physicochemical. The protocol:
Methods 3 Absorbance values of three known concentrations of Resiquimod samples (4.3×10−6, 4.3×10−5 and 8.6×10−5 M) were obtained to established a linear relationship (FIG. 23A) using the HPLC system as described in Methods 2 except wavelength=328 nm and the retention time=3.31 min.

The nature of series [4]: In vitro elution of Doxorubicin from coagulated gel (HPLC). The class given is physicochemical. The settings on record: for part of drug eluted out over time: citrate buffer pH 7, 36.5° C. As for the experimental part: Methods 2 Absorbance values of three known concentrations of Doxorubicin samples (1.0×10^−6, 9.5×10^−6 and 1.9×10^−5 M) were obtained to established a linear relationship (FIG. 4, Left) using a HPLC system: Agilant 1100; mobile phase=a gradient of ACN and H2O with 1% ammonium acetate; wavelength=500 nm; flow rate=1 mL/min. Each data point was an average of three measurements. Under the HPLC conditions, the retention time of Doxorubicin was at 4.00 minutes. Separately, three different amounts of Doxorubicin (2.1, 1.1 and 0.6 mg) were mixed with HSA-based #1 gel (0.5 mL each) and ablated using the conditions described in Aim 1. Once complete, the coagulated gel impregnated with Doxorubicin was collected and placed in a citrate buffer (5 mL, pH 7) in a water bath at 36.5° C. At 1, 3, 24 and 72 h, a small quantity of solution (0.5 mL) was passed through a membrane filter (cutoff 7 KDa) and injected into the HPLC system to quantify the eluted Doxorubicin. Each data point was triplicated.

Series [5] is described as follows: Dielectric properties by open-ended coaxial measurement. Type of series: physicochemical. The text has this: Materials or formulations with a high dipole moment as potential thermal accelerants can be expressed by the ε″ and σ values for thermal ablation (radiofrequency, microwave, irreversible electroporation. A person skilled in the art will recognize that in order to show the capacity of a material, or formulations of a material, quantitatively as a thermal accelerant, the concept of permittivity can be employed in lieu of, or in addition to, evaluation of dipole moment. For example, materials can be tested using an electromagnetic wave of sinusoidal frequency ω, which is directed at a subject sample by an open-ended coaxial cable of a low-power oscillator. Measurement of the magnitude and phase of the fraction of the wave which is reflected allows deduction of the complex permittivity of the tissue.
The complex permittivity is defined as ε*=ε′−jε″, where ε′ is the real permittivity and ε″ is the imaginary permittivity. […] The real permittivity is also known as the dielectric constant. The imaginary permittivity is also called the loss factor and can be written ε″=σ/(ωε0), so as to incorporate the electrical conductivity of the material, […]. The quantity a directly scales the power deposited per unit volume according to the following expression, ARD=σ|E|^2, where ARD is Absorption Rate Density (watt m^−3), […] is electrical conductivity (ohm^−1 m^−1), and JEJ is the magnitude of the electrical field (volt m^−1) produced by the microwave antenna at the point of interest in the tissue.

The conditions of series [6]: reference values; cited from earlier work.

Like-named read-outs stand apart in the source and are kept apart here.

The LD50 is the dose expected to kill half of the subjects tested. In the case of `[Cl-].[Cs+]` [CsCl, cesium chloride], the solubility in water in series [1] is recorded as 2.7 kg/L. Also, the LD50 in the series with rat (iv) is given as 910 mg/kg; in the series with rat (oral), 2,600 mg/kg.
Take `COc1cccc2c1C(=O)c1c(O)c3c(c(O)c1C2=O)C[C@@](O)(C(=O)CO)C[C@@H]3O[C@H]1C[C@H](N)[C@H](O)[C@H](C)O1` [Doxorubicin]: the “diffusion to the surrounding area of the phantom” value in series [2] (6 h after ablation) is “apparent”. The “diffusion out of coagulated gel” value in series [2] (immediately after ablation) was “no diffusion out of the protein meshwork”. Further, the “part of drug eluted out over time” value is 87% in series [3] (0.063 mg); 64% in series [3] (0.63 mg); 57% in series [3] (1.25 mg); 87% in series [4] (0.6 mg in 0.5 mL gel); 64% in series [4] (1.1 mg in 0.5 mL gel); 57% in series [4] (2.1 mg in 0.5 mL gel). Moreover, in series [4] (1, 3, 24, 72 h), the “elution rate over time” value was “highest at 1 h”.
In the case of `CO` [MeOH, methanol], in series [5] (915 MHz), the “Dielectric constant (ε′)” value was 31.2 and the “electrical conductivity (σ)” value is recorded as 0.1 mho/m. Further, in series [5] (2450 MHz), the “Dielectric constant (ε′)” value came out at 22.2 and the “electrical conductivity (σ)” value turned out to be 0.1.
Regarding `O` [Water (deionized)], in series [6], the “Electrical Conductivity (σ) of reference media” value was 5 × 10^−6 S/m.
In the case of `O` [Water], the “Dielectric constant (ε′)” value came out at 78.3 in series [5] (915 MHz) and 76.9 in series [5] (2450 MHz). For the same compound, the “electrical conductivity (σ)” value is 0 mho/m in series [5] (915 MHz) and 0.1 in series [5] (2450 MHz).
